Among the data in patent US9670210B2, “Cyclopropylamines as LSD1 inhibitors” (Incyte Corporation, priority 2014, dated 2017) are IC50 values, retold here.

For the test, the target named is LSD-1 enzyme (Homo sapiens (Human), UniProt O60341).

Description: LSD1 Histone Demethylase Biochemical Assay
LANCE LSD1/KDM1A demethylase assay-10 μL of 1 nM LSD-1 enzyme (ENZO BML-SE544-0050) in the assay buffer (50 mM Tris, pH 7.5, 0.01% Tween-20, 25 mM NaCl, 5 mM DTT) were preincubated for 1 hour at 25° C. with 0.8 μL compound/DMSO dotted in black 384 well polystyrene plates. […] After stopping the reactions plates were incubated for 30 minutes and read on a PHERAstar FS plate reader (BMG Labtech).

As for `N#Cc1ccc(CC2(CN[C@@H]3C[C@H]3c3ccccc3)CCN(CC3(C(=O)O)CC3)CC2)cc1` [Example 55, 1-{[4-(4-cyanobenzyl)-4-({[(1R,2S)-2-phenylcyclopropyl]amino}methyl)piperidin-1-yl]methyl}cyclopropanecarboxylic acid], the IC50 – broadly, the concentration needed to halve the response being measured – is under 100 nM.
Consider `O=C(O)C1(CN2CCC(CN[C@@H]3C[C@H]3c3ccccc3)(COc3cccc(F)c3)CC2)CCC1` [Example 78, 1-{[4-[(3-fluorophenoxy)methyl]-4-({[(1R,2S)-2-phenylcyclopropyl]amino}methyl)piperidin-1-yl]methyl}cyclobutanecarboxylic acid], for which the IC50 was under 100 nM.
Turning to `O=C(O)C1(CN2CCC(CN[C@@H]3C[C@H]3c3ccccc3)(Cc3ccc(F)cc3)CC2)CC1` [Example 31, 1-{[4-(4-fluorobenzyl)-4-({[(1R,2S)-2-phenylcyclopropyl]amino}methyl)piperidin-1-yl]methyl}cyclopropanecarboxylic acid], the concentration for half-maximal inhibition (IC50) is under 100 nM.
The figure for `COCC1(CN[C@@H]2C[C@H]2c2ccccc2)CCN(Cc2ccc(C(=O)O)cc2)CC1` [Example 62, 4-{[4-(methoxymethyl)-4-({[(1R,2S)-2-phenylcyclopropyl]amino}methyl)piperidin-1-yl]methyl}benzoic acid] is under 100 nM; for `CC1(CN[C@@H]2C[C@H]2c2ccccc2)CCN(C(=O)c2ccc(N)nn2)CC1` [Example 49, 6-{[4-methyl-4-({[(1R,2S)-2-phenylcyclopropyl]amino}methyl)piperidin-1-yl]carbonyl}pyridazin-3-amine] it is under 100 nM; for `N#Cc1cccc(CC2(CN[C@@H]3C[C@H]3c3ccccc3)CCN(C[C@H]3CC[C@H](C(=O)O)CC3)CC2)c1` [Example 58, trans-4-{[4-(3-cyanobenzyl)-4-({[(1R,2S)-2-phenylcyclopropyl]amino}methyl)piperidin-1-yl]methyl}cyclohexanecarboxylic acid] it is under 100 nM.
As to `COCC1(CN[C@@H]2C[C@H]2c2ccc(F)c(F)c2)CCN(CC2(C(=O)O)CCC2)CC1` [Example 65, 1-{[4-({[(1R,2S)-2-(3,4-difluorophenyl)cyclopropyl]amino}methyl)-4-(methoxymethyl)piperidin-1-yl]methyl}cyclobutanecarboxylic acid], the 50% inhibitory concentration (IC50) is under 100 nM.
As to `COc1cccc(C(=O)N2CC(CN[C@@H]3C[C@H]3c3ccccc3)C2)c1` (relative stereo) [Example 27, N-{[1-(3-Methoxybenzoyl)azetidin-3-yl]methyl}-trans-2-phenylcyclopropanamine], the IC50 was under 100 nM.
For `COc1ccccc1NC(=O)N1CC(CN[C@@H]2C[C@H]2c2ccccc2)C1` (relative stereo) [Example 24, N-(2-Methoxyphenyl)-3-{[(trans-2-phenylcyclopropyl)amino]methyl}azetidine-1-carboxamide] the value was under 100 nM.
The figure for `NC1(C(=O)N2CCC(CN[C@@H]3C[C@H]3c3ccccc3)(Cc3ccc(F)cc3)CC2)CCC1` [Example 34, 1-{[4-(4-fluorobenzyl)-4-({[(1R,2S)-2-phenylcyclopropyl]amino}methyl)piperidin-1-yl]carbonyl}cyclobutanamine] is under 100 nM.
For `N#CC1CCN(C(=O)N2CC(CN[C@@H]3C[C@H]3c3ccccc3)C2)CC1` (relative stereo) [Example 12, 1-[(3-{[(trans-2-Phenylcyclopropyl)amino]methyl}azetidin-1-yl)carbonyl]piperidine-4-carbonitrile] the value was under 100 nM.
`COc1cccc(NC(=O)N2CC(CN[C@@H]3C[C@H]3c3ccccc3)C2)c1` (relative stereo) [Example 23, N-(3-Methoxyphenyl)-3-{[(trans-2-phenylcyclopropyl)amino]methyl}azetidine-1-carboxamide] yielded an IC50 of under 100 nM.
The figure for `COc1cccc(CN2CCC(CN[C@@H]3C[C@H]3c3ccccc3)(Cc3cccc(C(=O)O)c3)CC2)c1` [Example 59, 3-{[1-(3-methoxybenzyl)-4-({[(1R,2S)-2-phenylcyclopropyl]amino}methyl)piperidin-4-yl]methyl}benzoic acid] is under 100 nM.
